What was measured:
[1] = test system: small intestine, jejunum and ileum; test: Protection of rats from high-dose 5-FU by oral pre-dosing with RPA: gut wet weights and visual inspection; format: in vivo, Hooded Lister (Rowett Strain) rats
Procedure: (§1) Thirty five young male Hooded Lister (Rowett Strain) rats (19 days old weighing 30-40g) were housed individually in grid bottom cages. The animals were fed a high quality semi-synthetic diet containing 10% lactalbumin protein (Table 1).
(§2) Diet and water was freely available at all times except on day 19 when the amount of food offered was restricted to 10g/rat. At 19 days, rat weights were 100-104g.
Animals pre-dosed with RPA were given the equivalent of 25, 50 or 100 mg/kg body weight RPA (Table 2) in 0.9% saline by gavage. The animals were pre-dosed for three consecutive days prior to the 5-FU injection.
(§3) Animals not pre-dosed with RPA were administered with 1 ml 0.9% saline by gavage.
(§4) 300mg of 5-fluorouracil was stirred in 14ml of distilled water. 1M NaOH was added slowly until the 5-FU had dissolved. The solution was made up to a final volume of 20 ml. The final pH of the solution was 8.3. A dose of 150 mg/kg body weight was administered to the animal by intraperitoneal injection. Immediately after the injection, the rats were offered 15g of the control diet.
Five groups, each consisting of 5 rats were fed on the standard diet containing lactalbumin (Table 1). One group of rats were fed 8 g per day of standard diet for three days and then injected with 5-FU at 150 mg/kg body weight (Table 2).
The rats were pair fed for the first three days and then fed ab libitum post 5-FU injection.
Three groups of animals were gavaged daily with 25, 50 or 100 mg/kg/day body weight Robinia pseudoacacia lectin (RPA) for three days and then injected with 150 mg/kg 5-FU on the following day. The remaining group of animals were pre-dosed with 100 mg/kg body weight RPA and then returned to lactalbumin containing diet without injection of 5-FU. After injection with 5-FU, the animals were returned to lactalbumin containing diet ad lib. The animals were sacrificed 7 days after the start of the experiment, the carcass dissected and the small intestine, jejunum and ileum wet weights recorded.

[2] = test system: small intestine, jejunum and ileum; test: Protection of rats from high-dose 5-FU by oral pre-dosing with A4 or B4 homotetramer lectin: gut dry weights and visual inspection; format: in vivo, Hooded Lister (Rowett Strain) rats
Procedure: as §1, §2, §3, §4
Five groups, each consisting of 5 rats were fed on a standard diet containing lactalbumin (Table 1) and were fed on the following dietary regime (Table 4); Table 4.
One group of animals (Treatment 1) were fed standard diet throughout. The second group were gavaged daily with saline for three days and then injected with 5-FU at 150 mg/kg body weight (Treatment 2). The remaining two groups (Treatment 3 & 4) of animals were gavaged daily for three days with either A4 or B4 RPA homotetramer for three days and then injected with 150 mg/kg body weight 5-FU. After injection with 5-FU, Treatment groups 2-4 were returned to standard diet for four days ad lib. The animals were sacrificed 7 days after the start of the experiment, the carcass dissected and the small intestine, jejunum and ileum dry weights recorded.
Dry weights normalised to 100g dry body weight.

[3] = wet weight, lactalbumin diet 3d, 5-FU 150 mg/kg i.p., no RPA
[4] = dry weight normalised to 100g dry body weight, saline gavage 3d, 5-FU 150 mg/kg, no lectin

For `O=c1[nH]cc(F)c(=O)[nH]1` [5-FU, 5-fluorouracil], the “Visual inspection of the small intestine, jejunum and ileum” value ([1]; 5-FU alone (treatment 1)) was “no, or a very thin mucosal layer”, the “Ileum” value [1, 3] was 1.0 g and the “Jejunum” value [1, 3] was 1.0 g. The “Small intestine” value [1, 3] was 5.62 g, the “tissue dry weight versus the untreated control” value ([2]; 5-FU 150 mg/kg (treatments 1 & 2)) was “significant reduction in tissue dry weight” and the “Visual inspection of the small intestine, jejunum and ileum” value ([2]; 5-FU alone) was “extensively damaged mucosal”. For the same compound, the “Ileum” value [2, 4] was 405 mg, the “Jejunum” value [2, 4] was 336 mg and the “Small intestine” value [2, 4] was 1789 mg.

Reference: EP1009418B1, “ROBINIA PSEUDOACACIA LECTIN AND ITS USES” (priority 1997, dated 1999)
